Experimental data reported in patent US20120245184A1 (Aderans Research Institute, Inc., priority 2006, published 2012).
Where a name gives a salt, the structure may show the parent alone.

Columns and labels:
[1] = system: sonic hedgehog pathway; test: Hedgehog reporter assay (gli-luciferase) in TM3 cells; format: cell-based, mouse; details: read-out: TM3 Avg. EC50
From the text: (§1) Mouse (TM3: mouse Leydig cells; S12: mouse embryonic mesenchymal cells) and human (Daoy: human medulloblastoma cell; HepM: human embryonic palatal mesenchymal cell) cell lines are used to screen small molecules for their ability to modulate the activity of the sonic hedgehog pathway (Table 1, Table 2, and Table 3). Stable hedgehog pathway reporter cell lines are established by specific antibiotic selection following transfection of a reporter plasmid containing a luciferase gene located directly downstream from the gli promoter. Consequently, any observable changes in cellular luciferase activity may be attributed to changes in sonic hedgehog pathway activity in mouse and human cells, respectively, since gli is the major by-product of this pathway. To calculate activity, we generate an eleven point dose curve for each compound using 1:3 dilutions in 96 well assay plates. Each plate tested also contains low and high control to establish maximal pathway activation so to establish/compare a percentage activation of each tested compound (AMAX) on respective plates.
(§2) Stable hedgehog pathway reporter cell lines are established following specific antibiotic selection following transfection of a reporter plasmid
(§3) In short, typically cells are plated in MicroTiter-plates at 10,000-20,000 cells per well, in growth media (containing 10%-20% FBS). After 48-72 hrs (HGL and DGL respectively) the media in the assay plates is switched to low-serum containing media (0.5% FBS). At that time compounds are added (at 1-5 μM) to the assay plates, in the presence or absence of hedgehog protein (octyl-modified version; 1-5 ng/ml). After another 24 hrs of incubation, the media from the assay plates is discarded and replaced with luciferase assay-mix. Subsequently, plates are incubated at RT for ˜15-30 mins and then read in a luminometer. [note: addition of the Hedgehog protein, although not critical, will sensitize the assay allowing the identification of weak actives].

[2] = system: sonic hedgehog pathway; test: Human hedgehog reporter assay HEPM-GliLuc (HGL); format: cell-based; details: read-out: HEPM Avg. EC50
From the text: as §1, §2, §3

[3] = system: sonic hedgehog pathway; test: Human hedgehog reporter assay Daoy-GliLuc (DGL); format: cell-based; details: Daoy human medulloblastoma cells, gli-luciferase reporter; read-out: Daoy Avg. EC50
From the text: as §1, §2, §3

[4] = TM3 mouse Leydig cells, gli-luciferase reporter
[5] = HepM human embryonic palatal mesenchymal cells, gli-luciferase reporter

| SMILES | EC50 [1, 4] | EC50 [3] | EC50 [2, 5] | EC50 ([1]; Mus musculus, Leydig) | EC50 ([2]; Homo sapiens) |
| --- | --- | --- | --- | --- | --- |
| CNC1CCC(N(Cc2cc(-c3ccnc(C)c3)ccc2OC)C(=O)c2sc3ccccc3c2Cl)CC1 (centres unmarked) [331 (R11), 3-Chloro-benzo[b]thiophene-2-carboxylic acid[2-methoxy-5-(2-methyl-pyridin-4-yl)-benzyl]-(4-methylamino-cyclohexyl)-amide dihydrochloride] | < 50 nM | – | < 50 nM | – | – |
| CNC(=O)c1cc(-c2ccc(OC)c(CN(C(=O)c3sc4c(F)ccc(F)c4c3Cl)C3CCC(NC)CC3)c2)ccn1 (centres unmarked) [356 (R21), 4-(3-{[(3-Chloro-4,7-difluoro-benzo[b]thiophene-2-carbonyl)-(4-methylamino-cyclohexyl)-amino]-methyl}-4-methoxy-phenyl)-pyridine-2-carboxylic acid methylamide dihydrochloride] | < 50 nM | < 50 nM | < 50 nM | – | – |
| CNC1CCC(N(Cc2cc(-c3ccc(C(F)(F)F)cc3)ccc2OC)C(=O)c2sc3ccccc3c2Cl)CC1 (centres unmarked) [Compound 306, 3-Chloro-benzo[b]thiophene-2-carboxylic acid (4-methoxy-4′-trifluoromethyl-biphenyl-3-ylmethyl)-(4-methylamino-cyclohexyl)-amide trifluoroacetate] | 50 to 250 nM | < 50 nM | – | – | – |
| CNC1CCC(N(Cc2cc(-c3ccc(OC(F)(F)F)cc3)ccc2OC)C(=O)c2sc3ccccc3c2Cl)CC1 (centres unmarked) [Compound 307, 3-Chloro-benzo[b]thiophene-2-carboxylic acid (4-methoxy-4′-trifluoromethoxy-biphenyl-3-ylmethyl)-(4-methylamino-cyclohexyl)-amide hydrochloride] | < 50 nM | < 50 nM | – | – | – |
| CNC1CCC(N(Cc2cc(-c3ccc(Cl)cc3)ccc2OC)C(=O)c2sc3ccccc3c2Cl)CC1 (centres unmarked) [Compound 308, 3-Chloro-benzo[b]thiophene-2-carboxylic acid (4′-chloro-4-methoxy-biphenyl-3-ylmethyl)-(4-methylamino-cyclohexyl)-amide hydrochloride] | < 50 nM | < 50 nM | – | – | – |
| CCOc1ccc(-c2ccc(C(F)(F)F)cc2)cc1CN(C(=O)c1sc2ccccc2c1Cl)C1CCC(NC)CC1 (centres unmarked) [Compound 309, 3-Chloro-benzo[b]thiophene-2-carboxylic acid (4-ethoxy-4′-trifluoromethyl-biphenyl-3-ylmethyl)-(4-methylamino-cyclohexyl)-amide hydrochloride] | 50 to 250 nM | < 50 nM | – | – | – |
| CCOc1ccc(-c2ccc(OC)cc2)cc1CN(C(=O)c1sc2ccccc2c1Cl)C1CCC(NC)CC1 (centres unmarked) [Compound 312, 3-Chloro-benzo[b]thiophene-2-carboxylic acid (4-ethoxy-4′-methoxy-biphenyl-3-ylmethyl)-(4-methylamino-cyclohexyl)-amide hydrochloride] | – | 50 to 250 nM | – | – | – |
| CCOc1ccc(-c2ccccc2)cc1CN(C(=O)c1sc2ccccc2c1Cl)C1CCC(NC)CC1 (centres unmarked) [Compound 313, 3-Chloro-benzo[b]thiophene-2-carboxylic acid (4-ethoxy-biphenyl-3-ylmethyl)-(4-methylamino-cyclohexyl)-amide hydrochloride] | 50 to 250 nM | < 50 nM | – | – | – |
| CN[C@H]1CC[C@H](N(Cc2cc(-c3ccc(F)cc3)ccc2OC)C(=O)c2sc3ccccc3c2Cl)CC1 [Compound 314, 3-Chloro-benzo[b]thiophene-2-carboxylic acid (4′-fluoro-4-methoxy-biphenyl-3-ylmethyl)-(4-methylamino-cyclohexyl)-amide hydrochloride] | < 50 nM | < 50 nM | – | – | – |
| CNc1ncc(-c2ccc(OC)c(CN(C(=O)c3sc4ccccc4c3Cl)[C@H]3CC[C@H](NC)CC3)c2)cn1 [Compound 322, 3-Chloro-benzo[b]thiophene-2-carboxylic acid[2-methoxy-5-(2-methylamino-pyrimidin-5-yl)-benzyl]-(4-methylamino-cyclohexyl)-amide dihydrochloride] | 250 to 1000 nM | 50 to 250 nM | – | – | – |
| CN[C@H]1CC[C@H](N(Cc2cc(-c3cnc(N)nc3)ccc2OC)C(=O)c2sc3ccccc3c2Cl)CC1 [Compound 323, 3-Chloro-benzo[b]thiophene-2-carboxylic acid[5-(2-amino-pyrimidin-5-yl)-2-methoxy-benzyl]-(4-methylamino-cyclohexyl)-amide dihydrochloride] | 50 to 250 nM | < 50 nM | – | – | – |
| CNC1CCC(N(Cc2cc(-c3cccc(C#N)c3)ccc2OC)C(=O)c2sc3c(F)ccc(F)c3c2Cl)CC1 (centres unmarked) [Compound 337, 3-Chloro-4,7-difluoro-benzo[b]thiophene-2-carboxylic acid (3′-cyano-4-methoxy-biphenyl-3-ylmethyl)-(4-methylamino-cyclohexyl)-amide hydrochloride] | < 50 nM | – | < 50 nM | – | – |
| CNC1CCC(N(Cc2cc(-c3ccncc3)ccc2OC)C(=O)c2sc3ccccc3c2Cl)CC1 (centres unmarked) [Compound 339 (R12), 3-Chloro-benzo[b]thiophene-2-carboxylic acid (2-methoxy-5-pyridin-4-yl-benzyl)-(4-methylamino-cyclohexyl)-amide dihydrochloride] | < 50 nM | – | < 50 nM | – | – |
| CCOc1ccc(-c2ccc(C(=O)C(F)(F)F)cc2)cc1CN(C(=O)c1sc2c(F)ccc(C)c2c1Cl)[C@H]1CC[C@@H](NC)CC1 [Compound 341, 3-Chloro-4,7-difluoro-benzo[b]thiophene-2-carboxylic acid[4-ethoxy-4′-(2,2,2-trifluoro-acetyl)-biphenyl-3-ylmethyl]-(4-methylamino-cyclohexyl)-amide trifluoroacetate] | < 50 nM | – | 50 to 250 nM | – | – |
| CNC1CCC(N(Cc2cc(-c3ccc(C#N)cc3)ccc2OC)C(=O)c2sc3c(F)ccc(F)c3c2Cl)CC1 (centres unmarked) [Compound 351, 3-Chloro-4,7-difluoro-benzo[b]thiophene-2-carboxylic acid (4′-cyano-4-methoxy-biphenyl-3-ylmethyl)-(4-methylamino-cyclohexyl)-amide hydrochloride] | < 50 nM | – | < 50 nM | – | – |
| CN[C@H]1CC[C@H](N(Cc2cc(-c3cccc(C(C)=O)c3)ccc2OC)C(=O)c2sc3cccc(F)c3c2Cl)CC1 [Compound 363, 3-Chloro-4-fluoro-benzo[b]thiophene-2-carboxylic acid (3′-acetyl-4-methoxy-biphenyl-3-ylmethyl)-(4-methylamino-cyclohexyl)-amide hydrochloride] | < 50 nM | < 50 nM | – | – | – |
| CNC1CCC(N(Cc2cc(-c3ccnc(C(=O)O)c3)ccc2OC)C(=O)c2sc3c(F)ccc(F)c3c2Cl)CC1 (centres unmarked) [Compound R6, 4-(3-{[(3-Chloro-4,7-difluoro-benzo[b]thiophene-2-carbonyl)-(4-methylamino-cyclohexyl)-amino]-methyl}-4-methoxy-phenyl)-pyridine-2-carboxylic acid bis(trifluoroacetate)] | 50 to 250 nM | – | 50 to 250 nM | – | – |
| CNC1CCC(N(Cc2cc(-c3ccc(S(C)(=O)=O)cc3)ccc2OC)C(=O)c2sc3ccccc3c2Cl)CC1 (centres unmarked) [Compound R7, 3-Chloro-benzo[b]thiophene-2-carboxylic acid (4′-methanesulfonyl-4-methoxy-biphenyl-3-ylmethyl)-(4-methylamino-cyclohexyl)-amide hydrochloride] | – | – | – | < 50 nM | < 50 nM |

More lines, main results first:

| EC50 [1, 4] | EC50 [3] | SMILES | EC50 [2, 5] | EC50 ([1]; Mus musculus, Leydig) | EC50 ([2]; Homo sapiens) |
| --- | --- | --- | --- | --- | --- |
| < 50 nM | – | CNC1CCC(N(Cc2cc(-c3cc(C)nc(C)c3)ccc2OC)C(=O)c2sc3ccccc3c2Cl)CC1 (centres unmarked) [Compound R1, 3-Chloro-benzo[b]thiophene-2-carboxylic acid[5-(2,6-dimethyl-pyridin-4-yl)-2-methoxy-benzyl]-(4-methylamino-cyclohexyl)-amide dihydrochloride] | 50 to 250 nM | – | – |
| 50 to 250 nM | – | CCOc1ccc(-c2ccc(C#N)cc2)cc1CN(C(=O)c1sc2ccccc2c1Cl)C1CCC(NC)CC1 (centres unmarked) [Compound R2, 3-Chloro-benzo[b]thiophene-2-carboxylic acid (4′-cyano-4-ethoxy-biphenyl-3-ylmethyl)-(4-methylamino-cyclohexyl)-amide hydrochloride] | 50 to 250 nM | – | – |
| 50 to 250 nM | – | CCOc1ccc(-c2ccc(C)nc2)cc1CN(C(=O)c1sc2ccccc2c1Cl)C1CCC(NC)CC1 (centres unmarked) [Compound R4, 3-Chloro-benzo[b]thiophene-2-carboxylic acid[2-ethoxy-5-(6-methyl-pyridin-3-yl)-benzyl]-(4-methylamino-cyclohexyl)-amide dihydrochloride] | 50 to 250 nM | – | – |
| < 50 nM | – | CN[C@H]1CC[C@@H](N(Cc2cc(-c3ccc(C(C)=O)cc3)ccc2OC)C(=O)C2=C(Cl)c3c(F)ccc(F)c3C2)CC1 [Compound R8, 3-Chloro-4,7-difluoro-benzo[b]thiophene-2-carboxylic acid(4′-carbamoyl-4-methoxy-biphenyl-3-ylmethyl)-(4-methylamino-cyclohexyl)-amide hydrochloride] | < 50 nM | – | – |
